Measured values published in article PMC12655527, “An Investigational Study on the Role of ADME Agents’ Genetic Variation on DD217 Pharmacokinetics and Safety Profile” (Pharmaceuticals, 2025).
Several values for one entry are separate records, joined by “and”; a condition that tells them apart may be missing. Equal entries are not always repeated. Where two headings read alike, the source gives them in different places.

Assay: Pharmacokinetic parameters (Tmax, AUClast, Cmax) of DD217 in phase II trial patients
Type: in vivo, human (patients undergoing knee replacement surgery)
Set-up: AUClast (area under the concentration-time curve up to the last measurable point) / Cmax (maximum plasma concentration): unit not given here
Settings: for AUC(0-t) / Cmax / Tmax: human, plasma, oral; for AUClast (area under the concentration-time curve up to the last measurable point) / Cmax (maximum plasma concentration) / Tmax (time to maximum plasma concentration): individual patients
Excerpt: The design, eligibility criteria, and outcomes of the phase II clinical trial evaluating the safety and tolerability of DD217 (NCT05189002, ClinicalTrials.gov) have been described previously. Briefly, this was a multicenter, double-blind, randomized, prospective phase II study designed to determine the optimal dosing regimen and to assess the safety and efficacy of DD217 for the prevention of venous thromboembolism (VTE) in patients undergoing knee replacement surgery. Patients were randomized into one of three groups: two groups received oral DD217 at doses of 40 mg or 60 mg once daily, starting on the morning of the first postoperative day, and one group received the active comparator, dalteparin sodium. The treatment duration was 14 days.
In total, data from 52 patients who underwent knee replacement surgery were included in the analysis. Of these, 34 patients received DD217 at daily doses of 40 mg (n = 16) or 60 mg (n = 18), and 18 patients received dalteparin sodium.
To characterize the pharmacokinetic profile of DD217 in our study, three parameters were assessed: Cmax, Tmax, and AUClast.

## CC(=N)N(C)c1ccc(C(=O)Nc2ccc(C)cc2C(=O)Nc2ccc(Cl)cn2)cc1.Cl [DD217, N-(5-chloropyridin-2-yl)-5-methyl-2-[4-(N-methylacetimidamido)benzamido]benzamide hydrochloride]
40 mg, CYP2C19 *1/*17, *17/*17, RM + UM (n = 9), mean ± SD, read-out: AUClast
  AUC(0-t): 47.7 ± 42.6 ng·h/mL
40 mg, CYP2C19 *1/*17, *17/*17, RM + UM (n = 9), mean ± SD, read-out: Cmax
  Cmax: 5.8 ± 6.73 ng/mL
40 mg, CYP2C19 *1/*17, *17/*17, RM + UM (n = 9), mean ± SD, read-out: Tmax
  Tmax: 7.67 ± 6.71 h
40 mg, CYP3A *1/*1, EM (n = 12), mean ± SD, read-out: AUClast
  AUC(0-t): 40 ± 42.1 ng·h/mL
40 mg, CYP3A *1/*1, EM (n = 12), mean ± SD, read-out: Cmax
  Cmax: 5.02 ± 6.92 ng/mL
40 mg, CYP3A *1/*1, EM (n = 12), mean ± SD, read-out: Tmax
  Tmax: 11.8 ± 9.5 h
60 mg/day, ABCB1 rs1045642 C/C (n 3), read-out: AUClast (SD)
  AUC(0-t): 197 ng·h/mL
60 mg/day, ABCB1 rs1045642 C/C (n 3), read-out: Cmax (SD)
  Cmax: 15.9 ng/mL
60 mg/day, ABCB1 rs1045642 C/C (n 3), read-out: Tmax (SD)
  Tmax: 2 h
60 mg/day, ABCB1 rs1045642 T/C (n 8), read-out: AUClast (SD)
  AUC(0-t): 53.9 ng·h/mL
60 mg/day, ABCB1 rs1045642 T/C (n 8), read-out: Cmax (SD)
  Cmax: 5.54 ng/mL
60 mg/day, ABCB1 rs1045642 T/C (n 8), read-out: Tmax (SD)
  Tmax: 7.75 h
60 mg/day, ABCB1 rs1045642 T/T (n 7), read-out: AUClast (SD)
  AUC(0-t): 27.6 ng·h/mL
60 mg/day, ABCB1 rs1045642 T/T (n 7), read-out: Cmax (SD)
  Cmax: 2.42 ng/mL
60 mg/day, ABCB1 rs1045642 T/T (n 7), read-out: Tmax (SD)
  Tmax: 13.6 h
60 mg/day, ABCB1 rs1128503 C/C (n 4), read-out: AUClast (SD)
  AUC(0-t): 164 ng·h/mL
60 mg/day, ABCB1 rs1128503 C/C (n 4), read-out: Cmax (SD)
  Cmax: 14.1 ng/mL
60 mg/day, ABCB1 rs1128503 C/C (n 4), read-out: Tmax (SD)
  Tmax: 2 h
60 mg/day, ABCB1 rs1128503 T/C (n 10), read-out: AUClast (SD)
  AUC(0-t): 50.5 ng·h/mL
60 mg/day, ABCB1 rs1128503 T/C (n 10), read-out: Cmax (SD)
  Cmax: 4.66 ng/mL
60 mg/day, ABCB1 rs1128503 T/C (n 10), read-out: Tmax (SD)
  Tmax: 9 h
60 mg/day, ABCB1 rs1128503 T/T (n 4), read-out: AUClast (SD)
  AUC(0-t): 14 ng·h/mL
60 mg/day, ABCB1 rs1128503 T/T (n 4), read-out: Cmax (SD)
  Cmax: 1.49 ng/mL
60 mg/day, ABCB1 rs1128503 T/T (n 4), read-out: Tmax (SD)
  Tmax: 16.2 h
60 mg/day, ABCB1 rs2032582 G/G (n 4), read-out: AUClast (SD)
  AUC(0-t): 164 ng·h/mL
60 mg/day, ABCB1 rs2032582 G/G (n 4), read-out: Cmax (SD)
  Cmax: 14.1 ng/mL
60 mg/day, ABCB1 rs2032582 G/G (n 4), read-out: Tmax (SD)
  Tmax: 2 h
60 mg/day, ABCB1 rs2032582 T/G (n 9), read-out: AUClast (SD)
  AUC(0-t): 51.6 ng·h/mL
60 mg/day, ABCB1 rs2032582 T/G (n 9), read-out: Cmax (SD)
  Cmax: 4.87 ng/mL
60 mg/day, ABCB1 rs2032582 T/G (n 9), read-out: Tmax (SD)
  Tmax: 9.56 h
60 mg/day, ABCB1 rs2032582 T/T (n 5), read-out: AUClast (SD)
  AUC(0-t): 19.4 ng·h/mL
60 mg/day, ABCB1 rs2032582 T/T (n 5), read-out: Cmax (SD)
  Cmax: 1.74 ng/mL
60 mg/day, ABCB1 rs2032582 T/T (n 5), read-out: Tmax (SD)
  Tmax: 13.8 h
60 mg/day, ABCB1 rs4148738 C/C (n 5), read-out: AUClast (SD)
  AUC(0-t): 18.9 ng·h/mL
60 mg/day, ABCB1 rs4148738 C/C (n 5), read-out: Cmax (SD)
  Cmax: 1.78 ng/mL
60 mg/day, ABCB1 rs4148738 C/C (n 5), read-out: Tmax (SD)
  Tmax: 10.6 h
60 mg/day, ABCB1 rs4148738 C/T (n 9), read-out: AUClast (SD)
  AUC(0-t): 51.9 ng·h/mL
60 mg/day, ABCB1 rs4148738 C/T (n 9), read-out: Cmax (SD)
  Cmax: 4.85 ng/mL
60 mg/day, ABCB1 rs4148738 C/T (n 9), read-out: Tmax (SD)
  Tmax: 11.3 h
60 mg/day, ABCB1 rs4148738 T/T (n 4), read-out: AUClast (SD)
  AUC(0-t): 164 ng·h/mL
60 mg/day, ABCB1 rs4148738 T/T (n 4), read-out: Cmax (SD)
  Cmax: 14.1 ng/mL
60 mg/day, ABCB1 rs4148738 T/T (n 4), read-out: Tmax (SD)
  Tmax: 2 h
60 mg, CYP2C8 rs10509681 T/C (n 2), read-out: AUClast (SD)
  AUC(0-t): 62.5 ng·h/mL
60 mg, CYP2C8 rs10509681 T/C (n 2), read-out: Cmax (SD)
  Cmax: 5.69 ng/mL
60 mg, CYP2C8 rs10509681 T/C (n 2), read-out: Tmax (h, SD)
  Tmax: 3 h
60 mg, CYP2C8 rs10509681 T/T (n 16), read-out: AUClast (SD)
  AUC(0-t): 68.2 ng·h/mL
60 mg, CYP2C8 rs10509681 T/T (n 16), read-out: Cmax (SD)
  Cmax: 6.11 ng/mL
60 mg, CYP2C8 rs10509681 T/T (n 16), read-out: Tmax (h, SD)
  Tmax: 9.81 h
60 mg, CYP2C8 rs11572080 C/C (n 16), read-out: AUClast (SD)
  AUC(0-t): 68.2 ng·h/mL
60 mg, CYP2C8 rs11572080 C/C (n 16), read-out: Cmax (SD)
  Cmax: 6.11 ng/mL
60 mg, CYP2C8 rs11572080 C/C (n 16), read-out: Tmax (h, SD)
  Tmax: 9.81 h
60 mg, CYP2C8 rs11572080 C/T (n 2), read-out: AUClast (SD)
  AUC(0-t): 62.5 ng·h/mL
60 mg, CYP2C8 rs11572080 C/T (n 2), read-out: Cmax (SD)
  Cmax: 5.69 ng/mL
60 mg, CYP2C8 rs11572080 C/T (n 2), read-out: Tmax (h, SD)
  Tmax: 3 h
60 mg, CYP2C9 *1/*1, NM (n = 11), mean ± SD, read-out: AUClast
  AUC(0-t): 37.5 ± 42.4 ng·h/mL
60 mg, CYP2C9 *1/*1, NM (n = 11), mean ± SD, read-out: Cmax
  Cmax: 3.66 ± 4.07 ng/mL
60 mg, CYP2C9 *1/*1, NM (n = 11), mean ± SD, read-out: Tmax
  Tmax: 12.9 ± 9.14 h
60 mg, CYP2C9 *2/*3, PM (n = 2), mean ± SD, read-out: AUClast
  AUC(0-t): 177 ± 224 ng·h/mL
60 mg, CYP2C9 *2/*3, PM (n = 2), mean ± SD, read-out: Cmax
  Cmax: 11.3 ± 13.6 ng/mL
60 mg, CYP2C9 *2/*3, PM (n = 2), mean ± SD, read-out: Tmax
  Tmax: 2.5 ± 2.12 h
60 mg, CYP2C19 *1/*1, NM (n = 8), mean ± SD, read-out: AUClast
  AUC(0-t): 98 ± 124 ng·h/mL
60 mg, CYP2C19 *1/*1, NM (n = 8), mean ± SD, read-out: Cmax
  Cmax: 8.44 ± 9.71 ng/mL
60 mg, CYP2C19 *1/*1, NM (n = 8), mean ± SD, read-out: Tmax
  Tmax: 8.75 ± 10.1 h
60 mg, CYP2C19 *1/*17, RM (n = 6), mean ± SD, read-out: AUClast
  AUC(0-t): 50.5 ± 51.6 ng·h/mL
60 mg, CYP2C19 *1/*17, RM (n = 6), mean ± SD, read-out: Cmax
  Cmax: 4.5 ± 4.61 ng/mL
60 mg, CYP2C19 *1/*17, RM (n = 6), mean ± SD, read-out: Tmax
  Tmax: 9.17 ± 7.33 h
60 mg, CYP3A *1/*1, EM (n = 16), mean ± SD, read-out: AUClast
  AUC(0-t): 52.7 ± 63.3 ng·h/mL
60 mg, CYP3A *1/*1, EM (n = 16), mean ± SD, read-out: Cmax
  Cmax: 5.32 ± 6.58 ng/mL
60 mg, CYP3A *1/*1, EM (n = 16), mean ± SD, read-out: Tmax
  Tmax: 9.75 ± 8.93 h
40 mg/day oral
  AUClast (area under the concentration-time curve up to the last measurable point): 39.7 and 128.526 and 20.601 and 13.049 and 18.213 and 10.234 and 34.56 and 101.166 and 120.462 and 21.211 and 2.735 and 84.631 and 10.412 and 4.928 and 48.451 and 17.602
  Cmax (maximum plasma concentration): 3.95 and 22.764 and 1.686 and 1.136 and 1.739 and 0.656 and 5.76 and 15.011 and 19.462 and 3.535 and 0.456 and 5.034 and 0.72 and 0.405 and 3.119 and 1.379
  Tmax (time to maximum plasma concentration): 1 h and 12 h
60 mg/day oral
  AUClast (area under the concentration-time curve up to the last measurable point): 19.08 and 237.522 and 35.852 and 16.597 and 21.462 and 105.854 and 58.513 and 4.589 and 25.375 and 51.929 and 37.407 and 14.483 and 13.976 and 62.698 and 11.57 and 152.359 and 11.552 and 335.306
  Cmax (maximum plasma concentration): 1.663 and 25.28 and 3.324 and 1.155 and 1.59 and 9.707 and 7.329 and 0.325 and 2.291 and 4.963 and 2.974 and 1.614 and 1.37 and 8.694 and 1.712 and 13.569 and 0.613 and 20.897
  Tmax (time to maximum plasma concentration): 1 h and 12 h and 5 h
